This assay deals with T1, Recombinant human sEH (Homo sapiens, UniProt P34913).
T1 construct: made in house
T1 sequence (P34913 1-555): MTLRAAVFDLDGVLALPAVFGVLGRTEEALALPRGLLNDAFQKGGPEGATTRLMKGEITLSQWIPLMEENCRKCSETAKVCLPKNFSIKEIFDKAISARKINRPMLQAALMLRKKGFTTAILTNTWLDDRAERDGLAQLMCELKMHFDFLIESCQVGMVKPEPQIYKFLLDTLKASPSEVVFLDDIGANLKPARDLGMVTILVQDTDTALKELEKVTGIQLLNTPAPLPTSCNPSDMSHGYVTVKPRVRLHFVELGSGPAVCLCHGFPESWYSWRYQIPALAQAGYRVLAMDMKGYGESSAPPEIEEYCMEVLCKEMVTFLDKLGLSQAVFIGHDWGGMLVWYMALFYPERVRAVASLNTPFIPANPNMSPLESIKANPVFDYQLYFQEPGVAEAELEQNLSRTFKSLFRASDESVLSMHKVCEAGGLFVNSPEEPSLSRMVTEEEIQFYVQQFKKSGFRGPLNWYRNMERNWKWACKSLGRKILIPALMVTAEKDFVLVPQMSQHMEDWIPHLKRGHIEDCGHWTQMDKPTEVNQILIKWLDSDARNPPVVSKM
Description: Inhibition of human soluble epoxide hydrolase (IC50 assay). The assay is classed as biochemical. The text has this:
This example provides assays and illustrates the inhibition of human soluble epoxide hydrolases by compounds of the invention.
Recombinant human sEH was produced in a baculovirus expression system and purified by affinity chromatography. The preparations were at least 97% pure as judged by SDS-PAGE and scanning densitometry. No detectable esterase or glutathione transferase activity, which can interfere with this sEH assay, was observed. Protein concentration was quantified by using the Pierce BCA assay using Fraction V bovine serum albumin as the calibrating standard.
IC50 values were determined in one of three methods. One method uses racemic 4-nitrophenyl-trans-2,3-epoxy-3-phenylpropyl carbonate as substrate. Enzyme (0.24 μM human sEH) was incubated with inhibitors for 5 min in sodium phosphate buffer, 0.1 M pH 7.4, at 30° C. before substrate introduction([S]=40 μM). Activity was assessed by measuring the appearance of the 4-nitrophenolate anion at 405 nm at 30° C. during 1 min (Spectramax 200; Molecular Devices). Assays were performed in triplicate. 1050 is a concentration of inhibitor, which reduces enzyme activity by 50%, and was determined by regression of at least five datum points with a minimum of two points in the linear region of the curve on either side of the IC50. The curve was generated from at least three separate runs, each in triplicate.
Other IC50 values were determined using the procedure described in Analytical
Biochemistry 343 66-75 (2005) using cyano(6-methoxy-naphthalen-2-yl)methyl trans-[(3-phenyloxiran-2-yl)methyl]carbonate as a substrate. Enzymes (0.96 nM for human sEH) were incubated with inhibitors ([I]=0.5-10,000 nM) for 5 min in BisTris-HCl buffer (25 mM, pH 7.0, containing 0.1 mg/ml of BSA) at 30° C. prior to substrate introduction ([S]=5 µM). Enzyme activity was measured by monitoring the appearance of 6-methoxy-2-naphthaldehyde. Assays were performed in triplicate. By definition, IC50 values are concentrations of inhibitor that reduce enzyme activity by 50%. IC50 values were determined by regression of at least five datum points, with a minimum of two datum points in the linear region of the curve on either side of the IC50 values. The curve was generated from at least three separate runs, each in triplicate.
Other inhibition potencies were determined using a fluorescent based high-throughput assay. Inhibitors in solution at 10 mM in DMSO were serially diluted by 10-fold increment in Bis/Tris HCl buffer (25 mM pH 7.0) containing 0.1 mg/mL of BSA (Buffer A). In black 96-well plates, 20 µL of the inhibitor dilution or buffer were delivered in every well, and then 130 μL of Human sEH at ˜0.4 μg/mL in solution in Buffer A were added to each well. The plate was then mixed and incubated at room temperature for 5 minutes. Fifty microliters of substrate ((3-Phenyl-oxiranyl)-acetic acid cyano-(6-methoxy-naphthalen-2-yl)-methyl ester; PHOME) at 200 μM in solution in 96:4 Buffer A:DMSO was then added to each well to give [S]final=50 μM and [E]final=˜4 nM. The plate was then mixed and incubated in the dark at room temperature (˜25° C.) for 90 min. Activity was measured by determining the relative quantity of 6-methoxy-2-naphthaldehyde formed with an excitation wavelength of 316 nm and an emission wavelength of 460 nm measured with a SpectraMax M-2 fluorometer (molecular Devices, Sunnyvale, Calif.).
Assays were conducted with the compounds indicated in the table below, as described above.
Usually IC50 stands for the concentration at which inhibition is half-maximal. Turning to `CC(C)c1cccc(C(C)(C)NC(=O)NC2CCC(O)CC2)c1` (stereo not drawn) [Compound 1892], the IC50 was found to be 0.393 µM.
Regarding `CC(C)c1cccc(C(C)(C)NC(=O)NCC2CCN(C(=O)OC(C)(C)C)CC2)c1` [Compound 1806], the IC50 came to 0.0056 µM.
With `CC(C)c1cccc(C(C)(C)NC(=O)N[C@H]2CC[C@H](Oc3ccc(C#N)cc3)CC2)c1` [Compound 1908, trans-1-[4-(4-Cyano-phenoxy)-cyclohexyl]-3-[1-(3-isopropyl-phenyl)-1-methyl-ethyl]-urea], the IC50 was found to be 0.0098 µM.
`CC(C)c1cccc(C(C)(C)NC(=O)NC2CCCCC2)c1` [Compound 1713, 1-cyclohexyl-3-(2-(3-isopropylphenyl)propan-2-yl)urea]: the IC50 worked out at 0.0075 µM.
The result for `CC(C)c1cccc(C(C)(C)NC(=O)NCCc2ccc(C(=O)O)cc2)c1` [Compound 1807] reads 2.89 µM; that for `CC(C)c1cccc(C(C)(C)NC(=O)Nc2cccc(C(=O)O)c2)c1` [Compound 1719], 1.61 µM.
The result for `CCCCCCCCCCCCNC(=O)NC(C)(C)c1cccc(C(C)C)c1` [Compound 1715] reads 0.0109 µM; that for `C=C(C)c1cccc(C(C)(C)NC(=O)NC2CCCCC2)c1` [Compound 1520], 0.0114 µM.
The same measure for `CC(C)c1cccc(C(C)(C)NC(=O)NC2CCN(C(=O)OC(C)(C)C)CC2)c1` [Compound 1868]: 0.0216 µM.
Regarding `CC(C)c1cccc(C(C)(C)NC(=O)NC2CCC(C(=O)O)CC2)c1` (stereo not drawn) [Compound 1852], the IC50 is 0.555 µM.
As to `CC(C)c1cccc(C(C)(C)NC(=O)NC2CCN(S(C)(=O)=O)CC2)c1` [Compound 2048], the concentration for half-maximal inhibition (IC50) was 0.0976 µM.
Consider `C=C(C)c1cccc(C(C)(C)NC(=O)Nc2cccc(C(=O)O)c2)c1` [Compound 1718], for which the IC50 turned out to be 7.92 µM.
The result for `CC(C)c1cccc(C(C)(C)NC(=O)NCCCCCCCCCCCC(=O)O)c1` [Compound 1808] reads 0.0525 µM; that for `C=C(C)c1cccc(C(C)(C)NC(=O)N[C@H]2CC[C@H](O)CC2)c1` [Compound 1887, trans-1-(4-Hydroxy-cyclohexyl)-3-[1-(3-isopropenyl)-1-methyl-ethyl]-urea], 0.0767 µM; that for `CC(C)c1cccc(C(C)(C)NC(=O)NCc2ccc(Oc3ccccc3)cc2)c1` [Compound 1955], 0.0106 µM.
In the case of `CC(C)c1cccc(C(C)(C)NC(=O)N[C@H]2CC[C@H](Oc3ccc(C(=O)O)cc3)CC2)c1` [Compound 1956], the IC50 is 0.0039 µM.
The result for `CCOC(=O)c1cccc(NC(=O)NC(C)(C)c2cccc(C(C)C)c2)c1` [Compound 1717] reads 0.158 µM; that for `CC(C)c1cccc(C(C)(C)NC(=O)NCCCCc2ccccc2)c1` [Compound 1805], 0.0115 µM.
For the compound `CC(=O)N1CCC(NC(=O)NC(C)(C)c2cccc(C(C)C)c2)CC1` [Compound 2064], the IC50 came to 0.444 µM.
The same measure for `C=C(C)c1cccc(C(C)(C)NC(=O)NCCCCCCCCCCCC)c1` [Compound 1714]: 0.033 µM; for `C=C(C)c1cccc(C(C)(C)NC(=O)Nc2cccc(C(=O)OCC)c2)c1` [Compound 1716]: 0.0413 µM.

Values taken from US20110098322A1, “PREPARATION OF NOVEL 1,3-S[…] AS INHIBITORS OF SOLUBLE EPOXIDE HYDROLASE” (priority 2007, published 2011).
